Where no end group is shown, it is not given here.
How the values were obtained:
tumour lines = test: Flow cytometry-based PI uptake assay, tumour lines; type: cell-based, human; settings: 50 μM HBD-3 (highest dose tested), 37°C, 30 min
Method: (§1) Cells suspended at 1×10^6 cells/mL in serum-free medium containing 0.1% (w/v) bovine serum albumin (BSA) (Sigma-Aldrich) were treated with HBD-3 at 37°C for 30 min. Nucleic acid stain propidium iodide (PI) was then added to a final concentration of 1 μg/mL and cells subjected to flow cytometry analysis using BD FACSCanto II Flow Cytometer and BD FACSDiva Software v6.1.1 (BD Biosciences, San Jose, CA). For each flow cytometry reading, 10,000 cells, gated appropriately based on forward scattering and side scattering, were recorded. The resultant data were processed using FlowJo software (Tree Star, San Carlos, CA) to determine PI-positivity, which reflects the level of membrane permeabilisation. For lipid inhibition assays, 15 μM HBD-3 was pre-incubated with 50 μM synthetic lipids, including L-α-phosphatidic acid (PA), L-α-phosphatidylcholine (PC), L-α-phosphatidylethanolamine (PE), L-α-phosphatidylserine (PS), L-α-phosphatidylinositol-4-phosphate (PI(4)P), L-α-phosphatidylinositol-3,5-bisphosphate (PI(3,5)P2), L-α-phosphatidylinositol-4,5-bisphosphate (PI(4,5)P2) and L-α-phosphatidylinositol-3,4,5-trisphosphate (PI(3,4,5)P)3. All lipids were sourced from Avanti Polar Lipids, Alabaster, AL. […]

[1] = test system: Primary cells, HUVEC, AHDF and CASMC; test: Tetrazolium-based cell viability assay, primary cells; set-up: species or system human; settings: range over HUVEC, 48 h, MTT, estimated, three independent experiments
Method: (§2) Human epithelial cervical cancer (HeLa), leukemic monocyte lymphoma (U937), prostate cancer (PC3), promyelocytic leukemia (HL-60), leukemic T cell lymphoblast (Jurkat) cells were cultured in RPMI-1640 medium supplemented with 5–10% (v/v) fetal calf serum (FCS), 100 U/mL penicillin and 100 μg/mL streptomycin (Invitrogen, Carlsbad, CA). Human umbilical vein […] cell (HUVEC) cells were cultured in M199 medium (Invitrogen) supplemented with 20% (v/v) FCS, 40 μg/mL gentamicin, 4 μg/mL endothelial cell growth factor, 4 μg/mL L-glutamine and 135 μg/mL heparin, in 0.1% (w/v) gelatin-coated Corning CELLBIND flask (Corning Life Sciences, Acton, MA). […]
(§3) Different concentrations of HBD-3 were added to cells seeded in 96-well plates in appropriate complete medium. […] After 48 h, cell viability was determined using 3-(4,5-dimethylthiazol-2-yl)-2,5-diphenyltetrazolium bromide (MTT) (Sigma-Aldrich, MO) for adherent cells (HeLa, PC3, HUVEC, AHDF, CASMC) or 3-(4,5-dimethylthiazol-2-yl)-5-(3-carboxymethoxyphenyl)-2-(4-sulfophenyl)-2H-tetrazolium (MTS) (Promega, Madison, WI) coupled with phenzine methosulfate (PMS) (Promega) for suspension cells (U937, HL-60, Jurkat) prior to absorbance measurement at 570 nm and […], respectively. Absorbance readings of untreated control wells was designated as 100% cell viability.

[2] = Protein-lipid overlay assay, Membrane strip; type: binding; settings: 1 μg/mL protein, immunodetection, densitometry
Method: (§4) Protein-lipid overlay assays using Membrane strip™ or PIP strip™ (Echelon Biosciences, Salt Lake City, UT) were performed using 1 μg/mL proteins as described previously. Lipid binding was immunodetected using a combination of rabbit anti-HBD-3 IgG (50 μg/mL) and horseradish peroxidase-conjugated donkey-anti-rabbit Ig (10 μg/mL) antibodies. Chemiluminescence signal intensity was quantitated by densitometry analysis using ImageJ (National Institutes of Health, Bethesda, MD; http://imagej.nih.gov/ij/).

[3] = ATP-encapsulated liposome leakage assay, PC:PI(4,5)P2; settings: PC liposomes containing 5% PI(4,5)P2, concentration-dependent, compared with PC only
Method: Liposomes were generated as described previously using natural PI(4,5)P2 (porcine brain, in chloroform:methanol:water at 20:9:1 molar ratio) and PC (chicken egg, in chloroform) purchased from Avanti Polar Lipids. PC only or PC:PI(4,5)P2 (95:5 molar ratio) solutions were dried under a stream of nitrogen gas followed by overnight vacuum-drying. The lipid films were rehydrated to a final concentration of 5 mg/mL in 20 mM HEPES (pH 7.2) containing 5 mg/mL adenosine-5-triphosphate disodium salt (ATP; Sigma-Aldrich) at 37°C for 1 h. After three subsequent cycles of freezing (liquid nitrogen) and thawing (25°C), multilamellar liposomes were extruded 15–20 times through a mini-extruder (Avanti Polar Lipids). Free ATP was removed by three centrifugal washes with 20 mM HEPES at 16,500 g prior to the ATP release assay. Liposomes treated with 1% Triton X-100 were included as positive control and assigned as total lysis, whereas HEPES only control served as background reading. The level of ATP release at a particular time point was determined by quotient of the corrected reading (after subtracting background) of the sample at that time point and corrected reading of total lysis, as per the following equation: % Lysist=Samplet−HEPESt/Triton X−HEPES×100

[4] = test system: plasma membrane PI(4,5)P2 of U937 cells; test: Anti-PI(4,5)P2 antibody blocking assay; type: cell-based, human; settings: 15 μM defensins 30 min or 10 mM neomycin 3 h; cells fixed, saponin-lysed, FITC-conjugated anti-PI(4,5)P2 IgM, flow cytometry
Method: U937 cells at 1×10^6 cells/mL were treated with 10 mM neomycin for 3 h and/or 15 μM defensins for 30 min in serum-free RPMI 1640 medium containing 0.1% BSA, followed by 20 min fixation with 2% (v/w) paraformaldehyde (Sigma-Aldrich), 10 min lysis with 0.5% (w/v) saponin (Sigma-Aldrich), and then 30 min blocking with 3% (w/v) BSA. Three 5-min centrifugal washes with PBS at 500 g were also included between steps. FITC-conjugated mouse anti-PI(4,5)P2 IgM (Echelon Biosciences) or IgM control (GeneTex, Irvine, CA) was subsequently used at 10 μg/mL for 30 min prior to flow cytometry analysis.

HUVEC cells = test: Flow cytometry-based PI uptake assay, HUVEC; type: cell-based, human; settings: 25 μM HBD-3, 37°C, 30 min, serum-free medium with 0.1% BSA
Method: as §1

U937 cells = test: Flow cytometry-based PI uptake assay, U937; type: cell-based, human; settings: 25 μM HBD-3, 37°C, 30 min, serum-free medium with 0.1% BSA
Method: as §1

[5] = Protein-lipid overlay assay, PIP strip; type: binding; settings: 1 μg/mL protein, immunodetection, densitometry
Method: as §4

[6] = test system: tumour lines HeLa, HL-60, Jukat, U937 and PC3; test: Tetrazolium-based cell viability assay, tumour lines; set-up: species or system human; settings: range over HeLa, HL-60, Jurkat, 48 h, MTT (adherent) or MTS/PMS (suspension), estimated, three independent experiments
Method: as §2, §3

IC50 [6]: 8 to 20 µM
Substance: human β-defensin 3 (GIINTLQKYYCRVRGGRCAVLSCLPKEEQIGKCSTRGRKCCRRKK; not fully specified; cysteine pairing not given here; UniProt P81534 23-67, looked up) [HBD-3, human β-defensin 3, cationic antimicrobial peptide, recombinantly expressed in P. pastoris]
cells permeabilised (PI-positive) (tumour lines): at least 80% | IC50 [1]: 30 to 65 µM | relative binding intensity to lipids on Membrane strip [2]: greater relative binding intensity toward phospholipids | ATP release from ATP-encapsulated liposomes [3]: much higher level of ATP was released | blocking of anti-PI(4,5)P2 antibody binding (overall fluorescence intensity vs untreated control) [4]: significant decrease of overall fluorescence intensity | PI-positive cells (HUVEC cells): 14.5% | PI-positive cells (U937 cells): approximately 85% | binding to phosphoinositides/lipids on PIP strip [5]: most strongly, PA and all phosphoinositides

From PMC4811302, “Human β-defensin 3 contains an oncolytic motif that binds PI(4,5)P2 to mediate tumour cell permeabilisation” (Oncotarget, 2015)
